According to the Kinase Knowledgebase extract (Sharma et al. 2016):

molecular target: PIK3CG (human) (UniProt P48736); assay: Assessment of PIK3CG Kinase Activity
Sequence (P48736 whole entry, looked up): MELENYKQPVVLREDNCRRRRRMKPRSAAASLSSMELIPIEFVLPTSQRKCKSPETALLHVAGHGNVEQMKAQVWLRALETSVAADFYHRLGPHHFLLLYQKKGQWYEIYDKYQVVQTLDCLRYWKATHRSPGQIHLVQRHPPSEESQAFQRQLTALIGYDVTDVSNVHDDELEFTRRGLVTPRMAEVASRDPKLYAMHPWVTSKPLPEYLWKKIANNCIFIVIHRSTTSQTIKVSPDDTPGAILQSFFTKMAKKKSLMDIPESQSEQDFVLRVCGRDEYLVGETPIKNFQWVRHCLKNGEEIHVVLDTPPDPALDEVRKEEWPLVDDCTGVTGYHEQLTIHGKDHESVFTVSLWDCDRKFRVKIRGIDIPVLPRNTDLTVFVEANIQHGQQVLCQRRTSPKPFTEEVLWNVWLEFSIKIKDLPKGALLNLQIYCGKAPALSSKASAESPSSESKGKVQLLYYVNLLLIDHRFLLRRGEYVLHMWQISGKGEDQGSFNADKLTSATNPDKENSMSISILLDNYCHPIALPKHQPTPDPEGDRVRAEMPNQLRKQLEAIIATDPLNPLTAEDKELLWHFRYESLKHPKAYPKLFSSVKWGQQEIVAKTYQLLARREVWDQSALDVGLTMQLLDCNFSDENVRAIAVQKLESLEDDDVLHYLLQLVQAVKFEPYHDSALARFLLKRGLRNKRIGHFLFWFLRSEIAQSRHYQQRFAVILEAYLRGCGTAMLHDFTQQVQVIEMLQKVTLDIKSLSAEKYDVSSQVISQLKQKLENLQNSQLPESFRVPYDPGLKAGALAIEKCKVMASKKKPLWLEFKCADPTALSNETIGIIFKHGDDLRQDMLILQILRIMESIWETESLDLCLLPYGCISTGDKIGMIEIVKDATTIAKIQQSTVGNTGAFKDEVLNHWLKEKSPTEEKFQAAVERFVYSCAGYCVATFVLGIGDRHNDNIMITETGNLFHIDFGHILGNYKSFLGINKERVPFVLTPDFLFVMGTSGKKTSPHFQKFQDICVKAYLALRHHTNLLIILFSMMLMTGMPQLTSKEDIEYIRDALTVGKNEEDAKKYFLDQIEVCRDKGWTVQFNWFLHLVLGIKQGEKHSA

IC50, < 600 nM:
CC(=O)Nc1nc2c(s1)-c1nc(-c3cc(C#CC4CCN(C(=O)N(C)C)CC4)ccc3Cl)ncc1CC2, CC(=O)Nc1nc2c(s1)-c1nc(-c3cc(C#CCNCC(C)C)ccc3Cl)ncc1CC2, CC(=O)Nc1nc2c(s1)-c1nc(-c3cc(C#CCNC(=O)Cn4ccnc4)ccc3Cl)ncc1CC2, CC(=O)Nc1nc2c(s1)-c1nc(-c3cc(C#CCCCNCC(C)C)ccc3Cl)ncc1CC2, CC(=O)Nc1nc2c(s1)-c1nc(-c3cc(C#CCNCCN4CCCC4)ccc3Cl)ncc1CC2, CC(=O)Nc1nc2c(s1)-c1nc(-c3cc(C#CCNS(=O)(=O)C(F)(F)F)ccc3Cl)ncc1CC2, CC(=O)Nc1nc2c(s1)-c1nc(-c3cc(C#Cc4cccnc4)ccc3Cl)ncc1CC2, CC(=O)Nc1nc2c(s1)-c1nc(-c3cc(C#CC4CCN(C(=O)C(C)C)CC4)ccc3Cl)ncc1CC2, CC(=O)Nc1nc2c(s1)-c1nc(-c3cc(C#CCCNCC4CCCC4)ccc3Cl)ncc1CC2, CC(=O)Nc1nc2c(s1)-c1nc(-c3cccc(C#CCN(C)C)c3)ncc1CC2, CC(=O)Nc1nc2c(s1)-c1nc(-c3cc(C#CCNC(=O)NC4CCCC4)ccc3Cl)ncc1CC2, CC(=O)Nc1nc2c(s1)-c1nc(-c3cc(C#CC4CCN(C5CCCC5)CC4)ccc3F)ncc1CC2, CC(=O)Nc1nc2c(s1)-c1nc(-c3cc(C#CCNCc4ccccn4)ccc3Cl)ncc1CC2, CC(=O)Nc1nc2c(s1)-c1nc(-c3cc(C#CCCN(C)C(C)=O)ccc3Cl)ncc1CC2, CC(=O)Nc1nc2c(s1)-c1nc(-c3cc(C#CCNC4CCCC4)ccc3Cl)ncc1CC2, CC(=O)Nc1nc2c(s1)-c1nc(-c3cc(C#CC4CCN(CC5CCCC5)CC4)ccc3Cl)ncc1CC2, CC(=O)NCC#Cc1cccc(-c2ncc3c(n2)-c2sc(NC(C)=O)nc2CC3)c1, CC(=O)Nc1nc2c(s1)-c1nc(-c3cc(C#CC4CCN(C5CCCC5)CC4)ccc3Cl)ncc1CC2, CC(=O)Nc1nc2c(s1)-c1nc(-c3cc(C#CCNC(=O)C(C)C)ccc3Cl)ncc1CC2, CC(=O)NCC#Cc1ccc(Cl)c(-c2ncc3c(n2)-c2sc(NC(C)=O)nc2CC3)c1, CC(=O)Nc1nc2c(s1)-c1nc(-c3cc(C#C[C@@H]4CCCN4)ccc3Cl)ncc1CC2, CC(=O)Nc1nc2c(s1)-c1nc(-c3cc(C#CC4(O)CCCCC4)ccc3Cl)ncc1CC2, CC(=O)Nc1nc2c(s1)-c1nc(-c3cc(C#CCN(C)C(C)C)ccc3Cl)ncc1CC2, CC(=O)Nc1nc2c(s1)-c1nc(-c3cc(C#CCCCNC4CCCC4)ccc3Cl)ncc1CC2, CC(=O)Nc1nc2c(s1)-c1nc(-c3cc(C#CCNS(=O)(=O)CC(F)(F)F)ccc3Cl)ncc1CC2, CC(=O)Nc1nc2c(s1)-c1nc(-c3cc(C#CCNC(=O)CC(C)C)ccc3Cl)ncc1CC2
